Measured values from article PMC10897196, “Structure–activity characteristics of phenylalanine analogs selectively transported by L-type amino acid transporter 1 (LAT1)” (Scientific Reports, 2024).
Where “and” joins values, the source holds several entries; their conditions need not be identical. Identical values can stand only once.

Columns and labels:
human LAT1 [1] = molecular target: T1, human LAT1 (Homo sapiens, UniProt Q01650); assay: Inhibition of L-[14C]leucine uptake in HEK293-hLAT1 cells; type: cell-based; conditions: for Inhibition of LAT1-mediated L-[14C]leucine uptake (in words, rank order): 1 μM L-[14C]leucine, 1 min, compounds at 10, 30, 100 μM; for Ki: L-[14C]leucine uptake, HEK293-hLAT1, mean ± S.E.M., n = 3–4, read-out: Ki (μM) LAT1; for Ki ratio (LAT2/LAT1): LAT1 selectivity, LAT2 Ki over LAT1 Ki
T1 construct: expressed in transfected cells
From the text: (§1) In this study, we used the HEK293 cells stably expressing human LAT1 or human LAT2, which form a heterodimeric complex with endogenous 4F2hc (CD98hc), required for plasma membrane localization. We first explored the impact of halogen group positioning in the benzene ring of Phe (Fig. 1) on its interaction with LAT1 and LAT2. […] We conducted inhibition experiments to measure the uptake of L-[^14C]leucine by LAT1 and L-[^14C]alanine by LAT2 in the presence or absence of Phe derivatives with an iodo group at position 2, 3, or 4 in the benzene ring.
(§2) The inhibition experiments were performed as described previously. HEK293-hLAT1 (1.5 × 10^5 cells/well) or HEK293-hLAT2 (2 × 10^5 cells/well) cells were plated onto poly-D-lysine-coated 24-well plates (Corning, New York, USA). Following a 2-day culture period, the uptake of 1 μM L-[^14C]leucine or L-[^14C]alanine was measured for 1 min in the absence or presence of non-radiolabeled test compounds at concentrations of 10, 30, and 100 μM. Radioactivity was quantified using a β-scintillation counter (LSC-3100; Aloka, Tokyo, Japan), and protein concentrations were determined with a Micro BCA Protein Assay Kit (Thermo Fisher Scientific, Rockford, IL). To calculate Ki values, the concentration-dependent uptake of L-[^14C]leucine or L-[^14C]alanine was analyzed in the presence and absence of test compounds[49]. The data were plotted against substrate concentration and fitted to Michaelis–Menten kinetics. Ki values were derived using nonlinear regression analysis with the enzyme kinetics inhibition module in GraphPad Prism software (Version 10.0.2; GraphPad Software Inc., San Diego, CA, USA).

human LAT2 [2] = molecular target: T2, human LAT2 (Homo sapiens, UniProt Q9UHI5); assay: Inhibition of L-[14C]alanine uptake in HEK293-hLAT2 cells; type: cell-based; conditions: for Inhibition of LAT2-mediated L-[14C]alanine uptake (in words, rank order): 1 μM L-[14C]alanine, 1 min, compounds at 10, 30, 100 μM; for Ki: L-[14C]alanine uptake, HEK293-hLAT2, mean ± S.E.M., n = 3–4, read-out: Ki (μM) LAT2
T2 construct: expressed in transfected cells
T2 sequence (Q9UHI5 1-535): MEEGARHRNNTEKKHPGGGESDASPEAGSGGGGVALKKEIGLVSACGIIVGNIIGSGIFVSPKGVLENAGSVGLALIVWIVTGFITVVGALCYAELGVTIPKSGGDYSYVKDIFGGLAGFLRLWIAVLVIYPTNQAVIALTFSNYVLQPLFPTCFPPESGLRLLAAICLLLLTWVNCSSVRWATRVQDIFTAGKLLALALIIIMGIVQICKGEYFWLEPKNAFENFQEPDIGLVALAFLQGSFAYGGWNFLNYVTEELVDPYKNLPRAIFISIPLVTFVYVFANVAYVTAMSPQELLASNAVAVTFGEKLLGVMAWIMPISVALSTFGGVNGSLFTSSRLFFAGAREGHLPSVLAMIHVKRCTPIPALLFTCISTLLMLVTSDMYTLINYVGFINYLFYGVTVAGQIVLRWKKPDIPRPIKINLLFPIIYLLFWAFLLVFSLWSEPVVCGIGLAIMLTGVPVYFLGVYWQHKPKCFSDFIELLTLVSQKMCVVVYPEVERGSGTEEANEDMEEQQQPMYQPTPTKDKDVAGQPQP
T2 sequence (P08195 1-529 partner): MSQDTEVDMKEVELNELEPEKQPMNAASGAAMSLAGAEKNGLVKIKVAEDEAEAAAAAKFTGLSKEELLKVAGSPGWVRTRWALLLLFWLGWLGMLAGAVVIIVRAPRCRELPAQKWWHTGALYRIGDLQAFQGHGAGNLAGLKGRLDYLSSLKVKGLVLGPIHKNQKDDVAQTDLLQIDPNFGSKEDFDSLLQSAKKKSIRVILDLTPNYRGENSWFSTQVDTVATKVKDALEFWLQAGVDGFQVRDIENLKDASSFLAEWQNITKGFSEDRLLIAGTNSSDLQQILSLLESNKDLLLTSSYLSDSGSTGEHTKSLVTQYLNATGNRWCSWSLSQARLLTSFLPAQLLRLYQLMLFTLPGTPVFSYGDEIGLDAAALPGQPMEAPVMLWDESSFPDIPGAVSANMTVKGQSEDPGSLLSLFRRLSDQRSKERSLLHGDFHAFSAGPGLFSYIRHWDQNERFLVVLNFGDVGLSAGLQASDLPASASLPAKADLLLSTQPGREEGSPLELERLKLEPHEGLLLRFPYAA
From the text: as §1, §2

[3] = set-up: method as in PMID 11901210; conditions: correlated with LAT1 Ki; cited from earlier work
human LAT1 [4] = molecular target: T1, human LAT1; assay: Efflux of pre-loaded L-[14C]leucine from HEK293-hLAT1 cells induced by extracellular compounds; type: cell-based; conditions: for Km / Vmax of efflux (% radioactivity/min): LAT1, L-[14C]leucine efflux, mean ± S.E.M., n = 3; for Km / Vmax of efflux (% radioactivity/min) / LAT1-mediated L-[14C]leucine efflux induced (in words): 1 min; for LAT1-mediated L-[14C]leucine efflux induced (in words): compounds at 10, 30, 100 μM
Description: (§3) We evaluated the efflux of pre-loaded L-[^14C]leucine from LAT1 and pre-loaded L-[^14C]alanine from LAT2 induced by extracellularly applied compounds.
(§4) Efflux experiments were performed as described previously. Cells cultured 48 h were pre-loaded with 5 μM L-[^14C]leucine or L-[^14C]alanine for 10 min at 37 °C. The cells were then washed, and the efflux was induced by incubating cells for 1 min in either the absence or presence of non-radiolabeled test compounds at indicated concentrations. The efflux time of 1 min fell within the linear range of time-dependent substrate efflux mediated by LAT1 and LAT2 (Supplementary Fig. S2). Following incubation, the medium was collected and radioactivity was measured in both the medium and the cells. Efflux was quantified as the percentage of radioactivity released into the medium, calculated using the formula: radioactivity of medium/(radioactivity of medium + radioactivity of cells) × 100%.
(§5) The kinetic parameters for the efflux of L-[^14C]leucine or L-[^14C]alanine induced by various concentrations of extracellularly-applied test compounds were analyzed. The baseline efflux values—those obtained in the absence of test compounds—were subtracted from the values measured in the presence of the compounds. The resultant data were fitted to Michaelis–Menten kinetics to determine the Km and Vmax by nonlinear regression analysis using “enzyme kinetics-velocity as a function of substrate” module within GraphPad Prism software.

human LAT2 [5] = molecular target: T2, human LAT2; assay: Efflux of pre-loaded L-[14C]alanine from HEK293-hLAT2 cells induced by extracellular compounds; type: cell-based; conditions: for Vmax of efflux (% radioactivity/min): LAT2, L-[14C]alanine efflux, mean ± S.E.M., n = 3
Description: as §3, §4, §5

T1 sequence (Q01650 whole entry, one chain of several): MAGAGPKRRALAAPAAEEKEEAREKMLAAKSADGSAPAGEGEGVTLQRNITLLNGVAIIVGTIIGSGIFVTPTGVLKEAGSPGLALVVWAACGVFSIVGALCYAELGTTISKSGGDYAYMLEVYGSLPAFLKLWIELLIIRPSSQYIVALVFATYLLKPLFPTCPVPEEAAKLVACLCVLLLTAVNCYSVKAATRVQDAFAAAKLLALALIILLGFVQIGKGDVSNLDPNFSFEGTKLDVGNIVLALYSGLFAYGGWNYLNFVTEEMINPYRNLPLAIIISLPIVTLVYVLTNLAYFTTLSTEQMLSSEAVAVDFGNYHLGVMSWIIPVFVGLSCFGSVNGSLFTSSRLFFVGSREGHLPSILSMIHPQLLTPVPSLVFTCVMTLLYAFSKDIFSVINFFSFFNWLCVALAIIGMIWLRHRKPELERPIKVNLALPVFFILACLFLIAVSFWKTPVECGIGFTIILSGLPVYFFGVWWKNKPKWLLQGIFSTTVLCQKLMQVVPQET

Row | Structure (SMILES) | Inhibition of LAT1-mediated L-[14C]leucine uptake (in words, rank order) (human LAT1 [1]) | Inhibition of LAT2-mediated L-[14C]alanine uptake (in words, rank order) (human LAT2 [2]) | Carbonyl oxygen charge [3] | Ki (human LAT1 [1]) | Ki ratio (LAT2/LAT1) (human LAT1 [1]) | Ki (human LAT2 [2]) | also measured
1 | N[C@@H](Cc1cccc(I)c1)C(=O)O [3-I-Phe] | markedly inhibited and 3-Br-Phe < 3-I-Phe | 4-I-Phe < 3-I-Phe and 3-Br-Phe < 3-I-Phe |  |  |  |  | 
2 | N[C@@H](Cc1ccc(I)cc1)C(=O)O [4-I-Phe] | comparable to that of Phe | Phe < 4-I-Phe |  |  |  |  | 
3 | N[C@@H](Cc1ccc(O)c(O)c1)C(=O)O [L-DOPA] |  |  | −0.5633 |  |  |  | 
4 | N[C@@H](Cc1ccccc1)C(=O)O [Phe, phenylalanine] | inhibit |  |  | 43.5 ± 6.28 µM | 2.53 | 110 ± 20 µM | Km (human LAT1 [4]): 8.92 ± 1.08 µM; Vmax of efflux (% radioactivity/min) (human LAT1 [4]): 13.32 ± 0.31 % radioactivity/min; Ratio to Vmax of Phe (human LAT1 [4]; LAT1 efflux): (1.00); LAT1-mediated L-[14C]leucine efflux induced (in words) (human LAT1 [4]): induced a notable efflux; Vmax of efflux (% radioactivity/min) (human LAT2 [5]; 1 min): 39.60 ± 0.74 % radioactivity/min; Ratio to Vmax of Phe (human LAT2 [5]; LAT2 efflux): (1.00)
5 | N[C@H](C(=O)O)c1ccccc1 [Phg, L-phenylglycine] | inhibit | minimal inhibition |  | 96.8 ± 13.2 µM | 2.50 | 242 ± 20.8 µM | 
6 | N[C@@H](Cc1ccc(O)cc1)C(=O)O [Tyr] |  |  | −0.5635 |  |  |  | 
7 | C[C@](N)(Cc1ccc(O)c(O)c1)C(=O)O [α-methyl-DOPA] |  |  | −0.5558 |  |  |  | 
8 | C[C@](N)(Cc1ccccc1)C(=O)O [α-methyl-Phe, α-Methyl-L-phenylalanine, reference compound] | inhibit | minimal inhibition |  | 157 ± 19.5 µM | 10.74 | 1680 ± 272 µM | Km (human LAT1 [4]): 67.9 ± 7.39 µM; Vmax of efflux (% radioactivity/min) (human LAT1 [4]): 15.45 ± 0.45 % radioactivity/min; LAT1-mediated L-[14C]leucine efflux induced (in words) (human LAT1 [4]): transported by LAT1 as substrates; Vmax of efflux (% radioactivity/min) (human LAT2 [5]; 1 min): 27.28 ± 0.70 % radioactivity/min; LAT2-mediated L-[14C]alanine efflux induced (in words) (human LAT2 [5]; compounds at 10, 30, 100 μM, 1 min): not efficiently transported by LAT2
9 | C[C@](N)(Cc1ccc(O)cc1)C(=O)O [α-methyl-Tyr] |  |  | −0.5579 |  |  |  | 
